Data reported in patent US20120207737A1, “MEDICAL UTILITY OF GLYCAN-BINDING PROTEINS AND GLYCANS” (UNIVERSITY OF ZURICH, priority 2009, published 2012).
Entries after “also recorded” stand apart in the source; their conditions may differ.

B1: AAL: β-propeller lectin from the ascomycete Aleuria aurantia (Genbank BAA00451) (protein, UniProt P18891 2-313, looked up)
Fucose-specific lectin: PTEFLYTSKIAAISWAATGGRQQRVYFQDLNGKIREAQRGGDNPWTGGSSQNVIGEAKLFSPLAAVTWKSAQGIQIRVYCVNKDNILSEFVYDGSKWITGQLGSVGVKVGSNSKLAALQWGGSESAPPNIRVYYQKSNGSGSSIHEYVWSGKWTAGASFGSTVPGTGIGATAIGPGRLRIYYQATDNKIREHCWDSNSWYVGGFSASASAGVSIAAISWGSTPNIRVYWQKGREELYEAAYGGSWNTPGQIKDASRPTPSLPDTFIAANSSGNIDISVFFQASGVSLQQWQWISGKGWSIGAVVPTGTPAGW

Key:
[1] = target: T1, Coprinopsis cinerea galectin CGL2, wild type (Genbank AAF34732) (Coprinopsis cinerea, UniProt Q9P4R8); assay: Isothermal Titration Microcalorimetry (ITC), in vitro binding of C. cinerea galectin CGL2 to synthetic trisaccharide; settings: 25° C.
T1 construct: amplifying the respective open reading frame from cDNA or available plasmids; made in house; host or cells: Escherichia coli BL21(DE3), vector pET24a
T1 sequence (Q9P4R8 whole entry): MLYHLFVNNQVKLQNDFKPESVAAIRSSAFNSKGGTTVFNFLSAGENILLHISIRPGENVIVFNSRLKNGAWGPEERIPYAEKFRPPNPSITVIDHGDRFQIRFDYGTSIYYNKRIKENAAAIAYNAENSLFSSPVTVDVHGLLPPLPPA
Method: The raw data is shown in the upper panel.
Bacterial cell pellets were resuspended in ice-cold phosphate-buffered saline (PBS) [30 mM Na-phosphate pH 7.3, 150 mM NaCl] containing 1 mM phenylmethylsulfonyl fluoride and ruptured using a French press. Cell debris was removed in two consecutive steps of centrifugation at 12000 g for 15 min and 27000 g for 30 min. The supernatant was incubated with lactosyl-sepharose at 4° C. for 1 h and CGL2 was finally eluted at room temperature in PBS containing 200 mM lactose. After size exclusion chromatography on Superose 6 10/300 GL (GE Healthcare) equilibrated in PBS, fractions containing the protein were pooled and concentrated using an Amicon Ultra-4 centrifugal filter device (Millipore) with a molecular weight cutoff of 10 kDa. Protein concentration was calculated by measuring the absorbance at 280 nm, assuming a relation of 1.25 mg mk^−1 to 1 unit absorbance at 280 nm for a path length of 1 cm. Conjugation of purified CGL2 to tetramethylrhodamine (TAMRA) (Molecular Probes) was performed as described in Walser, P. J. et al. (2005) Fungal Genet Biol 42, 293-305.
Experiments were performed with a VP-ITC isothermal titration calorimeter (Microcal, Mass., USA) at 25° C. using purified CGL2 (300 μM in TBS). Gal-β-1,4-Fuc-α-1,6-GlcNAc-β-O—C5H10-NH2 was dissolved in TBS at a concentration of 1.6 mM corrected based on purity estimate by ^1H-NMR (ca. 50-60%). The ligand was titrated into a cell containing the protein solution in 48 injections of 6 μl preceded by a single injection of 2 μl. All injections were performed at intervals of 3 min while stirring at 270 rpm. Experimental data were fitted to a theoretical titration curve using the MCS—ORIGIN software supplied by Microcal.

[2] = tested on: C. elegans glycosylation mutants; assay: Lectin sensitivity of C. elegans glycosylation mutants (development L1 to L4); assay type: in vivo, Caenorhabditis elegans; settings: testing of C. elegans glycosylation mutants, forward genetic screen
Method: FIG. 4 is a graph showing the CGL2-sensitivity of various C. elegans glycosylation mutants. C. elegans mutants of the genotypes indicated in the X-coordinate were analysed for development from L1 to L4 on CGL2-expressing E. coli as described in the experimental procedures below. See Table 1 below for glycosylation processes encoded by the various C. elegans genes.
FIG. 8 is a bar graph illustrating the RedA(CCL2)-sensitivity of various C. elegans glycosylation mutants. C. elegans mutants of the indicated genotypes were analysed for development from L1 to L4 on RedA-expressing E. coli as described in the below experimental procedures. Mutants not analyzed yet are indicated as n.d. See Table 1 below for glycosylation processes encoded by the various C. elegans genes.
FIG. 9 is a bar graph illustrating the MOA-sensitivity test of various C. elegans glycosylation mutants. C. elegans mutants of the indicated genotypes were analysed for development from L1 to L4 on MOA-expressing E. coli as described in experimental procedures below. Mutants not analyzed yet are indicated as n.d. […]
FIG. 10 is a bar graph illustrating the AAL-sensitivity of various C. elegans glycosylation mutants. C. elegans mutants of the indicated genotypes were analysed for development from L1 to L4 on AAL-expressing E. coli as described in Experimental Procedures. […]

[3] = tested on: C. elegans; assay: C. elegans toxicity plate assay (development L1 to L4 on lectin-expressing E. coli); assay type: in vivo, Caenorhabditis elegans; settings: lectin-expressing E. coli cells as food source
Method: (§1) FIG. 1 is a bar chart showing the toxicity of various fungal lectins towards C. elegans. C. elegans wildtype (N2) and pmk-1 mutant worms were analysed for development from L1 to L4 on lectin-expressing bacteria as described in the Experimental Procedures. The y-coordinate is the fraction of worms reaching L4 in the presence of bacteria expressing the lectins on the X-coordinate. Fungal lectins analyzed included C. cinerea galectins CGL1 (Genbank AAF34731) and CGL2 (Genbank AAF34732), galectin-related lectin CGL3 (Genbank ABD64675) and lectin RedA (CCL2) (Genbank ACD88750), Xerocomus chrysenteron lectin XCL (Genbank AAL73235) and its ortholog TAP1 from Sordaria macrospora (Genbank CAH03681), Aleuria aurantia lectin AAL (Genbank BAA00451) and Marasmius oreades agglutinin MOA (Genbank AAL47680).
Plasmids for bacterial expression of fungal lectins were constructed by amplifying the respective open reading frame from cDNA or available plasmids and ligating the resulting fragment into pET24a (Invitrogen) using introduced restriction sites. […]
Quantitative data on the effect of CGL2 on C. elegans development was acquired by placing 50 to 100 newly hatched L1 larvae of the indicated genotypes on the plates. After 72 h, the fraction of animals that reached L4 stage was determined.

[4] = tested on: H. contortus; assay: Haemonchus contortus toxicity assay (development L1 to L3, liquid, 96-well); assay type: in vivo; settings: bacterivorous stages fed lectin-expressing E. coli
Method: as §1, with “FIG. 12” for “FIG. 1”, “towards H. contortus. The nematodes” for “towards C. elegans. C. elegans wildtype (N2) and pmk-1 mutant worms”, “to L3” for “to L4”, “reaching L3” for “reaching L4”, “cinerea galectin” for “cinerea galectins CGL1 (Genbank AAF34731) and”, “(Genbank ABD64675),” for “(Genbank ABD64675) and”
The toxicity towards the above-mentioned parasitic nematode was evaluated in a liquid assay using 96-well cell culture plates. H. contortus eggs were isolated from feces of an infected sheep and hatched on water-agar plates containing Kanamycin (50 μg/ml) and Amphotericin B (2.5 μg/ml). Approximately 30 L1 larvae were collected and transferred to each well, in a total volume of 150 μl 0.1× Earls solution. […] Plates were incubated at 28° C. in the dark, and percentage of larvae that developed to L3 were determined after 7 days.

[5] = TBS, model of one ligand-binding site per protein monomer

Molecule	entropy of binding (TΔS) ([1]; TBS) [kcal/mol]	enthalpy change (ΔH) [1, 5] [kcal/mol]	number of binding sites (N) [1, 5]	Kd ([1]; purified CGL2 300 μM in TBS, ligand 1.6 mM, one ligand-binding site per protein monomer, read-out: dissociation constant (Kd)) [µM]	glycan that mediates nematotoxicity / is recognized in C. elegans [2]	toxicity towards C. elegans [3]	toxicity towards H. contortus [4]
CC(=O)N[C@H]1[C@H](OCCCCCN)O[C@H](CO[C@@H]2O[C@@H](C)[C@@H](O[C@@H]3O[C@H](CO)[C@H](O)[C@H](O)[C@H]3O)[C@@H](O)[C@@H]2O)[C@@H](O)[C@@H]1O [Gal-β-1,4-Fuc-α-1,6-GlcNAc-β-O—C5H10—NH2]	-3.31	-8.85 ± 0.1	0.977±0.004	86.9			
B1					binds terminal Fuc on a yet to be identified nematode glycoconjugate; also recorded: dependent on GDP-fucose biosynthesis	toxic	toxic
